Calls of active or inactive are those of the source. No cut-off for these calls is given here.
Experiments:
Homo sapiens [1] = species on record: Homo sapiens; assay: Inhibition of human GGT assessed as inactivation rate constant using gamma-Glu-AMC as substrate measured for 10 mins by fluorescence assay
Homo sapiens [2] = species on record: Homo sapiens; assay: Inhibition of human GGT at 0.1 mM using gamma-Glu-AMC as substrate measured for 10 mins by fluorescence assay

Compound `COP(=O)(CCC(N)C(=O)O)Oc1cccc(CC(=O)O)c1` (stereo not given) has a K (Homo sapiens [1]) of 51 M⁻¹ s⁻¹.
For `CO[P@@](=O)(CC[C@@H](N)C(=O)O)Oc1cccc(CC(=O)O)c1`, the inhibition (Homo sapiens [1]) was “inactive”.
With `CO[P@@](=O)(CC[C@H](N)C(=O)O)Oc1cccc(CC(=O)O)c1` the inhibition (Homo sapiens [1]) was “inactive”.
`CO[P@](=O)(CC[C@H](N)C(=O)O)Oc1cccc(CC(=O)O)c1` was tested, and the K (Homo sapiens [2]) was 174 M⁻¹ s⁻¹.
Work on `CO[P@](=O)(CC[C@@H](N)C(=O)O)Oc1cccc(CC(=O)O)c1` yielded a K (Homo sapiens [2]) of 21.5 M⁻¹ s⁻¹.

— ChEMBL document CHEMBL4177591, “Synthesis and evaluation of the inhibitory activity of the four stereoisomers of the potent and selective human γ-glutamyl transpeptidase inhibitor GGsTop” (Bioorg Med Chem Lett, 2017)
